In PubChem BioAssay (NCI):
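Step 1: Grow cells in 96-well plates. Step 2: Expose to compound for 48 hours at 5 concentrations. Step 3: Interpolate endpoints linearly; if unreached, use highest concentration. GI50 marks 50% less growth. Definition used: TGI = concentration required for complete inhibition of growth.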

Assays:
Experiment in all cases: inhibition of tumour cell growth, NCI panel, 48 h
[1] = system: SF-539 CNS
[2] = system: U251 CNS
[3] = system: SF-295 CNS
[4] = system: HOP-92 NSCLC
[5] = system: OVCAR-5 ovarian
[6] = system: BT-549 breast
[7] = system: UACC-62 melanoma
[8] = system: A549 NSCLC
[9] = system: NCI-H522 lung
[10] = system: MDA-MB-435
[11] = system: HCC-2998 colon
[12] = system: HOP-62 NSCLC
[13] = system: MDA-MB-231 breast
[14] = system: SNB-19 CNS
[15] = system: SK-MEL-2 melanoma
[16] = system: COLO 205 colon
[17] = system: MCF7 breast
[18] = system: SN12C renal
[19] = system: OVCAR-8 ovarian
[20] = system: NCI-H460 lung
[21] = system: IGROV1 ovarian
[22] = system: HT29 colon
[23] = system: ACHN renal
[24] = system: SK-OV-3 ovarian
[25] = system: OVCAR-4 ovarian
[26] = system: RPMI-8226 leukemia
[27] = system: PC-3 prostate
[28] = system: SK-MEL-5 melanoma
[29] = system: LOX IMVI melanoma
[30] = system: SW-620 colon
[31] = system: EKVX NSCLC
[32] = system: CAKI-1 renal
[33] = system: UO-31 renal
[34] = system: TK-10 renal
[35] = system: K-562 leukemia
[36] = system: A498 renal
[37] = system: KM12 colon
[38] = system: OVCAR-3 ovarian
[39] = system: MOLT-4 leukemia
[40] = system: HCT-15 colon
[41] = system: SK-MEL-28 melanoma
[42] = system: DU-145 prostate
[43] = system: 786-0 renal
[44] = system: CCRF-CEM leukemia
[45] = system: HCT-116 colon
[46] = system: SNB-75 CNS
[47] = system: SF-268 CNS
[48] = system: T-47D breast
[49] = system: HS 578T breast
[50] = system: NCI/ADR-RES ovarian
[51] = system: M14 melanoma
[52] = system: NCI-H23 lung
[53] = system: HL-60(TB) leukemia
[54] = system: UACC-257 melanoma
[55] = system: SR leukemia
[56] = system: RXF 393 renal
[57] = system: NCI-H226 lung
[58] = system: MALME-3M melanoma

`CN(C)CCNC(=O)c1ccc(Nc2nc3ccccc3c3occc23)cc1` showed a GI50 [1] of 1.83 µM, a TGI [1] of 3.7 µM and a GI50 [2] of 2.45 µM. The TGI [2] was 6.35 µM, the GI50 [3] was 1.88 µM and the TGI [3] was 4.18 µM. The GI50 [4] was 1.8 µM, the TGI [4] was 9.84 µM and the GI50 [5] was 11.8 µM. For the same compound, the TGI [5] was 24.6 µM, the GI50 [6] was 5.69 µM and the TGI [6] was 23.9 µM. The GI50 [7] was 1.35 µM, the TGI [7] was 2.71 µM and the GI50 [8] was 4.08 µM. It also gave a TGI [8] of 16.1 µM, a GI50 [9] of 13.3 µM and a TGI [9] of 29.8 µM. It also gave a GI50 [10] of 1.95 µM, a TGI [10] of 3.94 µM and a GI50 [11] of 1.62 µM. It also gave a TGI [11] of 3.07 µM, a GI50 [12] of 3.35 µM and a TGI [12] of 8.16 µM. The GI50 [13] was 1.54 µM, the TGI [13] was 4.14 µM and the GI50 [14] was 18.8 µM. For the same compound, the TGI [14] was 39 µM, the GI50 [15] was 9.71 µM and the TGI [15] was 26.6 µM. The GI50 [16] was 22.6 µM, the TGI [16] was 59.7 µM and the GI50 [17] was 49.3 µM. The TGI [17] was over 100 µM, the GI50 [18] was 2.5 µM and the TGI [18] was 7.87 µM. It also gave a GI50 [19] of 2.08 µM, a TGI [19] of 7.96 µM and a GI50 [20] of 28.5 µM. The TGI [20] was over 100 µM, the GI50 [21] was 2.18 µM and the TGI [21] was 10.3 µM. The GI50 [22] was 6.31 µM, the TGI [22] was over 100 µM and the GI50 [23] was 2.54 µM. The TGI [23] was 7.56 µM, the GI50 [24] was 19.3 µM and the TGI [24] was 37.2 µM. The GI50 [25] was 26.7 µM, the TGI [25] was over 100 µM and the GI50 [26] was 2.9 µM. It also gave a TGI [26] of 9.05 µM, a GI50 [27] of 3 µM and a TGI [27] of 14.3 µM. For the same compound, the GI50 [28] was 3.96 µM, the TGI [28] was 14 µM and the GI50 [29] was 1.84 µM. The TGI [29] was 3.66 µM, the GI50 [30] was 5.96 µM and the TGI [30] was 25.8 µM. The GI50 [31] was 11.7 µM, the TGI [31] was 28.7 µM and the GI50 [32] was 2.18 µM. The TGI [32] was 4.95 µM, the GI50 [33] was 3.82 µM and the TGI [33] was 16.2 µM. For the same compound, the GI50 [34] was 1.06 µM, the TGI [34] was 2.54 µM and the GI50 [35] was 4.29 µM. It also gave a TGI [35] of 17.1 µM, a GI50 [36] of 12.3 µM and a TGI [36] of 28.1 µM. It also gave a GI50 [37] of 1.89 µM, a TGI [37] of 4.15 µM and a GI50 [38] of 2.4 µM. The TGI [38] was 7.87 µM, the GI50 [39] was 2.75 µM and the TGI [39] was 5.17 µM. The GI50 [40] was 2.12 µM, the TGI [40] was 4.75 µM and the GI50 [41] was 16.5 µM. It also gave a TGI [41] of 44 µM, a GI50 [42] of 6.94 µM and a TGI [42] of 20.7 µM. It also gave a GI50 [43] of 2.57 µM, a TGI [43] of 6.8 µM and a GI50 [44] of 3.04 µM. For the same compound, the TGI [44] was 8.74 µM, the GI50 [45] was 1.66 µM and the TGI [45] was 3.02 µM. For the same compound, the GI50 [46] was 10.5 µM, the TGI [46] was 25.5 µM and the GI50 [47] was 63.7 µM. The TGI [47] was over 100 µM, the GI50 [48] was 16.4 µM and the TGI [48] was 39.8 µM. The GI50 [49] was 18.6 µM, the TGI [49] was 42.1 µM and the GI50 [50] was 8.92 µM. It also gave a TGI [50] of 22.6 µM, a GI50 [51] of 1.7 µM and a TGI [51] of 3.15 µM. For the same compound, the GI50 [52] was 8.36 µM and the TGI [52] was 21.3 µM.
`N#CC1=C(N)Oc2cc3c(cc2C1c1cccs1)OCO3` (configuration not stated) showed a GI50 [1] of 0.747 µM, a TGI [1] of 11.2 µM and a GI50 [2] of 0.397 µM. It also gave a TGI [2] of 31.9 µM, a GI50 [3] of 0.393 µM and a TGI [3] of over 100 µM. The GI50 [4] was 0.66 µM, the TGI [4] was 26.2 µM and the GI50 [5] was 2.82 µM. It also gave a TGI [5] of over 85.4 µM, a GI50 [6] of 0.882 µM and a TGI [6] of 37.6 µM. The GI50 [7] was 0.485 µM, the TGI [7] was over 100 µM and the GI50 [53] was 0.247 µM. The TGI [53] was 0.899 µM, the GI50 [8] was 0.583 µM and the TGI [8] was over 70.9 µM. The GI50 [9] was 0.19 µM, the TGI [9] was 0.639 µM and the GI50 [11] was 0.775 µM. It also gave a TGI [11] of 11.6 µM, a GI50 [12] of 0.484 µM and a TGI [12] of over 100 µM. It also gave a GI50 [13] of 5.41 µM, a TGI [13] of over 100 µM and a GI50 [14] of 1.36 µM. For the same compound, the TGI [14] was over 100 µM, the GI50 [15] was 0.252 µM and the TGI [15] was 0.783 µM. It also gave a GI50 [16] of 0.366 µM, a TGI [16] of 1.66 µM and a GI50 [17] of 0.343 µM. The TGI [17] was over 62.3 µM, the GI50 [18] was 0.723 µM and the TGI [18] was over 100 µM. The GI50 [19] was 0.587 µM, the TGI [19] was over 52.7 µM and the GI50 [20] was 0.373 µM. The TGI [20] was 24.4 µM, the GI50 [21] was 1.1 µM and the TGI [21] was over 100 µM. For the same compound, the GI50 [22] was 0.377 µM, the TGI [22] was 15.2 µM and the GI50 [23] was 3.63 µM. It also gave a TGI [23] of over 100 µM, a GI50 [24] of 0.575 µM and a TGI [24] of 8.1 µM. For the same compound, the GI50 [25] was 4.5 µM, the TGI [25] was over 100 µM and the GI50 [26] was 0.451 µM. For the same compound, the TGI [26] was 40.7 µM, the GI50 [54] was 0.502 µM and the TGI [54] was over 100 µM. The GI50 [27] was 1.16 µM, the TGI [27] was over 100 µM and the GI50 [55] was 0.27 µM. For the same compound, the TGI [55] was over 100 µM, the GI50 [28] was 0.34 µM and the TGI [28] was over 43.5 µM. The GI50 [29] was 0.679 µM, the TGI [29] was over 61.3 µM and the GI50 [30] was 0.356 µM. For the same compound, the TGI [30] was over 100 µM, the GI50 [31] was 1.21 µM and the TGI [31] was over 100 µM. It also gave a GI50 [32] of 0.542 µM, a TGI [32] of over 100 µM and a GI50 [33] of 1.24 µM. The TGI [33] was over 100 µM, the GI50 [34] was 1.86 µM and the TGI [34] was over 67.8 µM. For the same compound, the GI50 [35] was 0.205 µM, the TGI [35] was over 100 µM and the GI50 [36] was 0.234 µM. It also gave a TGI [36] of 10.2 µM, a GI50 [37] of 0.325 µM and a TGI [37] of over 59.7 µM. It also gave a GI50 [38] of 0.236 µM, a TGI [38] of 0.644 µM and a GI50 [39] of 0.504 µM. The TGI [39] was over 100 µM, the GI50 [56] was 0.311 µM and the TGI [56] was 2.7 µM. For the same compound, the GI50 [40] was 0.486 µM, the TGI [40] was over 100 µM and the GI50 [41] was 1.12 µM. The TGI [41] was over 100 µM, the GI50 [42] was 0.824 µM and the TGI [42] was over 100 µM. It also gave a GI50 [57] of 0.653 µM, a TGI [57] of over 100 µM and a GI50 [43] of 0.686 µM. For the same compound, the TGI [43] was over 68.3 µM, the GI50 [44] was 0.404 µM and the TGI [44] was over 29.8 µM. For the same compound, the GI50 [45] was 0.407 µM, the TGI [45] was over 62.3 µM and the GI50 [46] was 0.367 µM. The TGI [46] was 4.74 µM, the GI50 [47] was 0.654 µM and the TGI [47] was over 85.6 µM. For the same compound, the GI50 [48] was 0.595 µM, the TGI [48] was over 70.5 µM and the GI50 [49] was 0.411 µM. It also gave a GI50 [50] of 0.232 µM, a TGI [50] of 0.707 µM and a GI50 [58] of 0.58 µM. The TGI [58] was over 100 µM, the GI50 [51] was 0.387 µM and the TGI [51] was over 100 µM. For the same compound, the GI50 [52] was 0.428 µM and the TGI [52] was over 100 µM.
